Data reported in ChEMBL document CHEMBL1201862, “PubChem BioAssay data set” (2004).
Activity calls are given as the source filed them.

Key:
[1] = viability inhibitors of stage V gametocytes – luminescence, dose response (AID 1117278); type: functional, cell-based;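 also: gametocytes exposed to compound for 24 hours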
[2] = viability loss in human Jurkat cells – cell-based, luminescence, cytotoxicity control for P. falciparum gametocyte viability project, dose response (AID 1117277); type: functional;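 also: potency reflects loss of cellular ATP meaning fewer viable cells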
[3] = IC50 of Artemis nuclease activity blockers – biochemical, fluorescence intensity, dose response (AID 720701); type: functional;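 also: Artemis endonuclease enzyme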
[4] = NIH-3T3 fibroblast cytotoxicity, dose response, cytotoxicity control, cell-based, fluorescence, Alamar Blue, secondary assay (AID 2327); type: functional;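 also: NIH-3T3 mouse fibroblasts cultured with fluconazole at 8 µg/mL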
[5] = biological target: T1, RNA-binding protein pos-1 (Caenorhabditis elegans, UniProt G5EF15); test: disruptors of C. elegans POS-1 RNA interaction – biochemical, fluorescence polarization, dose response (AID 1964);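 also: purified POS-1 fused to maltose binding protein made in E. coli; potency of compounds blocking POS-1 binding to fluorescent RNA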
T1 sequence (G5EF15 whole entry): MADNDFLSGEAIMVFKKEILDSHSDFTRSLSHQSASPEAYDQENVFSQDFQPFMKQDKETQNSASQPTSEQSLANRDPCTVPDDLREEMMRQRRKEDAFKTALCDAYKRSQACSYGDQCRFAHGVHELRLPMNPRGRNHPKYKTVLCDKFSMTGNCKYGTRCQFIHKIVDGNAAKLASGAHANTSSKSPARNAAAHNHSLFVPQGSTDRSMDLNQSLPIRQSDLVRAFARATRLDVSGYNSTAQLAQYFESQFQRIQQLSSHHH

[6] = biological target: T2, Zinc finger protein mex-5 (Caenorhabditis elegans, UniProt Q9XUB2); test: potency of MEX-5 RNA-binding blockers – biochemical, C. elegans, fluorescence polarization, dose response (AID 1960)
T2 sequence (Q9XUB2 whole entry): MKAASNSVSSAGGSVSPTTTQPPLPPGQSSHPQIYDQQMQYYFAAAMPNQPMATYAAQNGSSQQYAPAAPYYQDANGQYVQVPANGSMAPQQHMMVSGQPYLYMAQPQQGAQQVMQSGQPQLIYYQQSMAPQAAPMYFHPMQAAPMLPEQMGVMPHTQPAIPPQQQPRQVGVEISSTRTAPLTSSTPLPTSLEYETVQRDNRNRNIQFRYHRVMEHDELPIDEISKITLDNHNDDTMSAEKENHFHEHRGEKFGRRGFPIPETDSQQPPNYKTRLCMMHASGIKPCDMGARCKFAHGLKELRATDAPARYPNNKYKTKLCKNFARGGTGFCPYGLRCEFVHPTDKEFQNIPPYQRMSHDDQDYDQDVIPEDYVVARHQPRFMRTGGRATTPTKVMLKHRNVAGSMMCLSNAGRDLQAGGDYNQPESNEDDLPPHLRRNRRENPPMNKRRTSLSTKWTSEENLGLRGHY

[7] = fluconazole-exposed Candida albicans growth modulators – fluorescence, retest, confirmation (AID 2467); type: functional, cell-based
[8] = Trypanosoma cruzi growth suppression in host cells – NIH3T3 host cells, beta-gal luminescence, confirmation (AID 2044); type: functional, cell-based;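 also: intracellular parasites grown in NIH/3T3 mouse fibroblasts as host cells; luminescent beta-galactosidase reporter signal from transgenic T. cruzi replicating inside host cells; inhibitors lower the luminescence signal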
[9] = NIH3T3 cell viability loss – ATP luminescence, mouse fibroblasts, counter-screen, dose response (AID 2010); type: functional, cell-based;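 also: cells exposed to compound for about 90 hours before reading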
[10] = biological target: T3, Endoribonuclease toxin MazF (Escherichia coli K-12, UniProt P0AE70); test: activation of MazEF endoribonuclease cleavage – biochemical, fluorescence, single-stranded RNA substrate, uHTS hits, dose response (AID 588481); type: functional
T3 sequence (P0AE70 whole entry): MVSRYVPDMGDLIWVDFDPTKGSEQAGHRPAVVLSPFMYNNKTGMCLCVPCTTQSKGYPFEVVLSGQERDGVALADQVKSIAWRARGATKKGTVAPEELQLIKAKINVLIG

[11] = biological target: T3, Endoribonuclease toxin MazF; test: substrate-only fluorescence increase artefacts – biochemical, single-stranded RNase substrate, counter-screen for MazEF activator project, dose response (AID 588502); type: functional
[12] = biological target: T4, Corticotropin-releasing factor receptor 2/Corticotropin-releasing factor-binding protein (Homo sapiens, UniProt P24387+Q13324); test: activators of CRF receptor 2 with binding protein – uHTS hits, confirmation (AID 602473); type: functional; settings: read-out: EC50_Mean
T4 sequence (Q13324 whole entry): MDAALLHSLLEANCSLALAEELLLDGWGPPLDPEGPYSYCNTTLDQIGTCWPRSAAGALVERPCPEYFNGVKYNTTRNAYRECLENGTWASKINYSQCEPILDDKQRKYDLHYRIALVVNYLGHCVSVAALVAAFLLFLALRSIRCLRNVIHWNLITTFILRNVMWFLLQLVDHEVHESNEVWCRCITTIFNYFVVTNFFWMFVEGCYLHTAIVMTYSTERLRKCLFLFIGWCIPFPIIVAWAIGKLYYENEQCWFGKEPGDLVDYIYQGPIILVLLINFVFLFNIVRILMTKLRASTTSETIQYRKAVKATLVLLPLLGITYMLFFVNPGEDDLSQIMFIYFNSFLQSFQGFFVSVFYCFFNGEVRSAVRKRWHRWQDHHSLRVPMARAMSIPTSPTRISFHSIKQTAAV
T4 sequence (P24387 whole entry): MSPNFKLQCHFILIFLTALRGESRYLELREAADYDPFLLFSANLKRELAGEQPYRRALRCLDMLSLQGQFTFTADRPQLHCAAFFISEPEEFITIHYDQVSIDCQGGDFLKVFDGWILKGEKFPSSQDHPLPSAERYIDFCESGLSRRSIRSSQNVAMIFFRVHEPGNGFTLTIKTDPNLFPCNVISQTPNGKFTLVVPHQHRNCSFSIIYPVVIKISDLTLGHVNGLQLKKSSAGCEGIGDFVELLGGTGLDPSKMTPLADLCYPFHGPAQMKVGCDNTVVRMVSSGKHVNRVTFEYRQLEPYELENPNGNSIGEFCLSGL

[13] = viability loss in THP-1 monocytes – THP-1 cells, cytotoxicity control for Vif-APOBEC3G degradation inhibitor project, dose response (AID 1117359); type: functional; settings: THP-1
Paired box protein Pax-8 = Paired box protein Pax-8 (Homo sapiens, UniProt Q06710); test: PAX8 transcriptional activity inhibition in RMG-I – RMG-I cells, luciferase, cherry-pick, dose response (AID 687027); type: functional, cell-based;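 also: luciferase reporter driven by Pax8 target thyroperoxidase promoter measured by SteadyGlo luminescence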
[14] = OVCAR-3 cell viability loss – plate reader, dry powder samples, PAX8 inhibitor project, dose response (AID 743044); type: functional, cell-based
[15] = IGROV1 cell killing – plate reader, dry powder samples, PAX8 inhibitor project, dose response (AID 743043); type: functional, cell-based; settings: IGROV-1
[16] = OVCAR8 cell viability loss – plate reader, dry powder samples, PAX8 project, dose response (AID 743197); type: functional, cell-based; settings: OVCAR-8
[17] = growth inhibition of yeast DHODH-expressing 3D7 parasites – SYBR Green, dry powder samples, dose response (AID 1159570); type: functional, cell-based;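 also: parasite growth measured after 72 hours of compound exposure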
[18] = P. falciparum Dd2 growth inhibitors, dose response, SYBR Green, cherry-picked samples (AID 1159567); type: functional, cell-based
[19] = Dd2 malaria parasite growth inhibition potency – SYBR Green, dry powder samples, dose response (AID 1159566); type: functional, cell-based;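 also: potency for growth inhibition with lower SYBR green DNA signal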
[20] = growth inhibition of PfATP4-mutant resistant parasites – NITD609-resistant line, SYBR Green, dry powder, dose response (AID 1159571); type: functional, cell-based;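 also: parasites synchronized at ring stage by sorbitol before testing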

Chain of Paired box protein Pax-8 (Q06710 whole entry): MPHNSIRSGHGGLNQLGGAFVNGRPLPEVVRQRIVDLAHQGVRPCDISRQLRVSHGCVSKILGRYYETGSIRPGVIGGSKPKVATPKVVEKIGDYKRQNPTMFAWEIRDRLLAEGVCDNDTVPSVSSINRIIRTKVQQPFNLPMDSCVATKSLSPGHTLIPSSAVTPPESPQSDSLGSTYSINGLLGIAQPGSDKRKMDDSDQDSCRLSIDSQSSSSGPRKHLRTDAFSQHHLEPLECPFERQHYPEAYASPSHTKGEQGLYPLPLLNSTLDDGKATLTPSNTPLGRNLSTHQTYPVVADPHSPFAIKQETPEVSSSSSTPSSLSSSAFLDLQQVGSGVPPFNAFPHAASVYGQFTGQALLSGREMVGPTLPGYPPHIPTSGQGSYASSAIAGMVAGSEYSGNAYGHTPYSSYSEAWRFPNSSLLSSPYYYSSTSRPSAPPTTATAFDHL

CC(=O)NC1C(=O)N=C(SCc2ccccc2)NC1=O (centres undefined)
IC50 [1]: > 109 µM (inactive)
IC50 [2]: > 83.3 µM (inactive)

CCCc1ccc(OCCNC(=O)CC)cc1
IC50 [1]: > 109 µM (inactive)
IC50 [2]: > 83.4 µM (inactive)

Oc1ccc2ccccc2c1/C=N/c1nc2c(s1)CCCC2
IC50 [3]: > 20 µM (inactive)

CCN(CC)c1ccc(/N=C/c2ccc(N(CC)CC)cc2O)cc1
EC50 [4]: 147 µM (inconclusive)
EC50 [5]: > 300 µM (not active)
EC50 [6]: > 300 µM (not active)
EC50 [7]: > 38 µM (not active)
EC50 [8]: 3.25 µM (active)
EC50 [9]: > 60 µM (not active)
EC50 [10]: > 99 µM (inactive)
EC50 [11]: > 99 µM (inactive)
EC50 [12]: 4.26 µM (active)
CC50 [13]: > 40 µM (active)

COc1cccc(-c2ccc3c(c2)[C@@H]2[C@@H](CCN2S(=O)(=O)c2ccccc2OC)[C@H](CO)N3C)c1
AC50 (Paired box protein Pax-8): 10.3 µM (active)
AC50 [14]: 18 µM (active)
AC50 [15]: 50.6 µM (active)
AC50 [16]: 27.8 µM (active)

CC(=O)N(/N=C1\Sc2ccccc2C1=O)c1ccccc1
IC50 [3]: 6.46 µM (active)

C[C@H]1CN([C@@H](C)CO)S(=O)(=O)c2ccc(-c3ccc(C#N)cc3)cc2O[C@H]1CN(C)CC1CC1
AC50 [17]: 2.79 µM (active)
AC50 [18]: 2.27 µM (active)
AC50 [19]: 1.76 µM (active)
AC50 [20]: 3.08 µM (active)
